Assay results taken from patent publication US20050215517A1, “Use of an anti-endotoxin drug in the prevention and treatment of disease” (priority 1999, published 2005).

What was measured:
[1] = Plasma pharmacokinetics of E5564 after 72 hours intravenous infusion; type: in vivo, beagle dogs; conditions: 72 h i.v. infusion; for T½: after end of infusion
Experimental: FIG. 4 is a graph showing the plasma levels of E5564 during and after 72 hours of intravenous infusion. […] At the indicated times, blood was drawn and analyzed for E5564 concentration by extraction and analysis by HPLC. Each value represents the mean±S.E.M. of three animals. No drug was detectable in samples drawn prior to dosing.
This long-term presence of unmodified E5564 in blood initially led us to believe that active drug was likely present for very long periods of time after cessation of drug administration.

LPS-induced IL-6 release = test: Inhibition of LPS-induced IL-6 release in ex vivo blood samples during intravenous infusion of E5564; set-up: species or system beagle dogs
Experimental: (§1) FIG. 5 is a pair of graphs showing ex vivo analysis of active E5564 during intravenous infusion. Activity of E5564 was determined during intravenous infusion of 0.24 mg/kg/hour E5564 (□,∘) or 2.4 mg/kg/hour E5564 (▪,●) into female (upper panel) or male (lower panel) beagle dogs. At the indicated times, blood was drawn and analyzed for E5564 activity by adding 1 ng/ml LPS, incubating for three hours at 37° C., and assaying the plasma fraction for IL-6 by bioassay, as is described in the Materials and Methods section (below). Each value represents the mean±standard deviation of samples assayed in duplicate from each animal. The zero hour sample was taken prior to infusion.
as §1, with “FIG. 6” for “FIG. 5”, “adding 10” for “adding 1”
as §1, with “FIG. 7” for “FIG. 5”, “adding 100” for “adding 1”
To assess the activity of E5564 over multiple time points from a single treated animal, we employed an ex vivo assay, as is mentioned above, to test for active drug in samples of blood drawn from a treated animal. Samples of blood were drawn from beagle dogs infused with E5564 over a period of 24 hours. One dog of each sex was tested under each of two dose regimens: a low dose of 0.24 mg/kg/hour and a high dose of 2.4 mg/kg/hour.
Blood samples were taken from these dogs at predose, 4 hours after initiation of infusion, and 24 hours after initiation of infusion. The blood samples were challenged with 0, 1, 10, or 100 ng/ml LPS, and then incubated for three hours. The samples were then analyzed for activation by LPS, using induction of cytokine response as a readout.
LPS from Escherichia coli (0111:B4) was purchased from List Biologicals (Campbell, Calif.). LPS was dissolved in sterile water at 1 mg/ml and stored at −20° C. Prior to use, LPS was sonicated in a bath sonicator (VW-380; Heat Systems-Ultrasonics Inc., Farmingdale, N.Y.) for 1-2 minutes immediately before use and diluted into Ca^2+, Mg^2+ free Hanks balanced salt solution (HBSS; Sigma).
Dogs were treated with E5564 (0.24 or 2.4 mg/kg/hour) dissolved in a mixture of placebo solution (10% lactose monohydrate, 0.045% Na2HPO4.7H2O, 0.035% NaH2PO4.H2O, 0.006% NaOH; pH 7.4±0.3) and 5% dextrose (1:4) by intravenous infusion via indwelling catheter for 24 hours at a rate of 2 mg/kg/hour.
(for time zero samples), or incubated with the indicated concentrations of LPS for three hours. Plasma was then prepared and immediately frozen at −80° C. Samples were stored at −80° C. until assay.
B9 cells were the gift of Dr. Mary Rodrick (Beth Israel Deaconess Hospital, Boston, Mass.). They were grown in Iscove's DMEM medium containing 5% fetal bovine serum (FBS), […] 2-mercaptoethanol, 2 mM L-glutamine, and 100 U/ml penicillin/streptomycin. […]

[2] = Relative toxicity of E5564 versus B531 (animal studies); conditions: E5564 compared with B531

CCCCCC/C=C\CCCCCCCCCC(=O)N[C@H]1[C@H](OC[C@H]2O[C@H](OP(=O)(O)O)[C@H](NC(=O)CC(=O)CCCCCCCCCCC)[C@@H](OCCCCCCCCCC)[C@@H]2O)O[C@H](COC)[C@@H](OP(=O)(O)O)[C@@H]1OCC[C@@H](CCCCCCC)OC [E5564, α-D-Glucopyranose, 3-O-decyl-2-deoxy-6-O-[2-deoxy-3-O-[(3R)-3-methoxydecyl)-6-O-methyl-2-[[(11Z)-1-oxo-11-octadecenyl)amino]-4-O-phosphono-β-D-glucopyranosyl]-2-[(1,3-dioxotetradecyl)amino]-,1-(dihydrogen phosphate)]
AUC0-144 hours ([1]; dose 0.1 mg/kg, female): 790 ± 51 µg·h/mL | C72 hours ([1]; dose 0.1 mg/kg, female): 10350 ± 930 ng/mL | AUC0-144 hours ([1]; dose 0.1 mg/kg, male): 1069 ± 139 µg·h/mL | C72 hours ([1]; dose 0.1 mg/kg, male): 13070 ± 1220 ng/mL | AUC0-144 hours ([1]; dose 0.3 mg/kg, female): 2616 ± 737 µg·h/mL | C72 hours ([1]; dose 0.3 mg/kg, female): 32400 ± 5720 ng/mL | AUC0-144 hours ([1]; dose 0.3 mg/kg, male): 3309 ± 485 µg·h/mL | C72 hours ([1]; dose 0.3 mg/kg, male): 41290 ± 7180 ng/mL | AUC0-144 hours ([1]; dose 1 mg/kg, female): 29642 ± 1514 µg·h/mL | C72 hours ([1]; dose 1 mg/kg, female): 393900 ± 14200 ng/mL | AUC0-144 hours ([1]; dose 1 mg/kg, male): 27114 ± 5737 µg·h/mL | C72 hours ([1]; dose 1 mg/kg, male): 366000 ± 69300 ng/mL | T½ ([1]; dose 0.1 mg/kg, female): 40.9 ± 9.5 h | T½ ([1]; dose 0.1 mg/kg, male): 38.4 ± 4.5 h | T½ ([1]; dose 0.3 mg/kg, female): 38.0 ± 11.6 h | T½ ([1]; dose 0.3 mg/kg, male): 39.9 ± 11.2 h | T½ ([1]; dose 1 mg/kg, female): 32.0 ± 2.8 h | T½ ([1]; dose 1 mg/kg, male): 35.1 ± 8.7 h | Inhibition of response to LPS (IL-6) vs predose (LPS-induced IL-6 release; infusion 0.24 mg/kg/hour, 1 ng/ml LPS, 4 hours after beginning infusion): ≥ 98% | Inhibition of response to LPS (IL-6) vs predose (LPS-induced IL-6 release; infusion 0.24 mg/kg/hour, 1 ng/ml LPS, end of infusion (24 hours)): complete | Inhibition of response to LPS (IL-6) vs predose (LPS-induced IL-6 release; infusion 0.24 mg/kg/hour, 10 ng/ml LPS, end of infusion (24 hours)): ~85% | Maximum inhibition of response to LPS (IL-6) vs predose (LPS-induced IL-6 release; infusion 0.24 mg/kg/hour, 100 ng/ml LPS, end of infusion (24 hours)): 34-52% | Inhibition of response to LPS (IL-6) vs predose (LPS-induced IL-6 release; infusion 2.4 mg/kg/hour, 1 ng/ml LPS, 4 hours after beginning infusion): complete inhibition | Inhibition of response to LPS (IL-6) vs predose (LPS-induced IL-6 release; infusion 2.4 mg/kg/hour, 1 ng/ml LPS, end of infusion (24 hours)): complete | Inhibition of response to LPS (IL-6) vs predose (LPS-induced IL-6 release; infusion 2.4 mg/kg/hour, 10 ng/ml LPS, 4 hours): nearly completely inhibited | Inhibition of response to LPS (IL-6) vs predose (LPS-induced IL-6 release; infusion 2.4 mg/kg/hour, 10 ng/ml LPS, end of infusion (24 hours)): complete | Inhibition of response to LPS (IL-6) vs predose (LPS-induced IL-6 release; infusion 2.4 mg/kg/hour, 100 ng/ml LPS, 4 hours): nearly completely inhibited | Inhibition of response to LPS (IL-6) vs predose (LPS-induced IL-6 release; infusion 2.4 mg/kg/hour, 100 ng/ml LPS, end of infusion (24 hours)): > 90% | Toxicity relative to B531 [2]: about twenty-fold less toxic than B531
